Assay results: article PMC10156683, “Male-selective effects of oxytocin agonism on alcohol intake: behavioral assessment in socially housed prairie voles and involvement of RAGE” (Neuropsychopharmacology, 2022)
Where a name gives a salt, the structure may show the parent alone.

How the values were obtained:
RAGE = assay: Involvement of RAGE in brain penetration of d5 OXT: pre-treatment with RAGE antagonist FPS ZM1; type: in vivo, prairie vole (Microtus ochrogaster)
From the text: Following confirmation of the presence of RAGE mRNA and protein in prairie vole brain using RT-PCR and immunohistochemistry as described in the Supplementary Material, we tested whether IN or IP administered OXT penetrates into the brain and whether the RAGE protein is involved in this transport. Adult female and male prairie voles were assigned to control or treatment groups. Animals in the treatment group received the high affinity, BBB-permeant RAGE antagonist FPS ZM1 and control animals received saline 30 min prior to administration of oxytocin-(leucine-5,5,5-d3, glycine-2,2-d2) trifluoroacetate salt (d5 OXT) in saline to all animals. […]
(§1) Alcohol and water intake were calculated for each animal as liquid consumed in grams (adjusted per density of 5% (v/v) ethanol and water) over body weight in kilograms. Alcohol and water drink size were determined by the volume of liquid consumed (ml) per consumption event. Consumptive visits were defined as channel entries during which a consumption event was recorded. […] Cumulative measures were analyzed at hourly intervals for 24 h post-treatment. […]
In 5 (1 control female, 2 control males, 1 pre-treated female and 1 pre-treated male) out of 57 cases levels were above or below 2 standard deviations from the mean and thus removed from analysis. In cases when no d5 OXT was detected, the concentration was entered as zero (17 total). […]

AVPR1a = conditions: cited from earlier work
From the text: Determining the behavioral and molecular effects of OXT on alcohol consumption is important for translational application and optimization of treatment efficacy. […] Given OXT’s low brain-penetrance and potentially non-specific effects on the related vasopressin receptor AVPR1a, development of an OXTR receptor agonist with a more desirable pharmacokinetic profile could increase the tran ...

in vivo = assay: in vivo; design: species or system prairie vole (Microtus ochrogaster); conditions: for tissue level at time at 10 min: female
From the text: Following confirmation of the presence of RAGE mRNA and protein in prairie vole brain using RT-PCR and immunohistochemistry as described in the Supplementary Material, we tested whether IN or IP administered OXT penetrates into the brain and whether the RAGE protein is involved in this transport. Adult female and male prairie voles were assigned to control or treatment groups. Animals in the treatment group received the high affinity, BBB-permeant RAGE antagonist FPS ZM1 and control animals received saline 30 min prior to administration of oxytocin-(leucine-5,5,5-d3, glycine-2,2-d2) trifluoroacetate salt (d5 OXT) in saline to all animals. After 10 min, animals were deeply anaesthetized under 4% isoflurane and perfused with heparinized saline. […] Brains were extracted and snap-frozen in isopentane, then stored at −80 °C until prepared for analysis via LC-MS/MS (Supplementary Fig. S2).
OXT acetate salt (Bachem, Torrence, CA, USA) was dissolved in normal saline to doses of 5.0 mg/kg and 10.0 mg/kg (25 µl, IN). LIT-001 was synthesized in the laboratory of Dr. Marcel Hibert. […]
as §1
Adult female and male prairie voles (75- 207d) were assigned to control (n =28; females = 14) or treatment (n = 29; females = 15) groups pseudo-randomly to ensure genetic diversity across groups. Whole brain tissue samples (~650 mg) were homogenized, subjected to protein precipitation and solid-phase extraction, and analyzed for concentrations (pg/mg) of exogenous oxytocin-(leucine-5,5,5-d3, glycine-2,2-d2) trifluoroacetate salt (d5 OXT) using a Shimadzu Nexera-LCMS-8060 (Shimadzu, Kyoto, Japan) liquid chromatograph-triple quadrupole mass spectrometer. […]

prairie voles [1] = assay: Continuous-access two-bottle choice (CA-2BC) alcohol drinking in socially housed prairie voles, HM2 cages, mixed-cage design; type: in vivo, prairie vole (Microtus ochrogaster)
Procedure: For experiments examining the effects of pharmacologically targeting the OXT system on alcohol (and water) consumption, adult female and male prairie voles were given ad libitum access to alcohol in a CA-2BC design for 6 days. […] Fluid consumption was measured before and after treatment (IN OXT or IP LIT-001, or vehicle) using the Herdsman-2 (HM2; MBrose Faaborg, Denmark) cage system. The HM2 system is designed to allow socially housed animals unrestrained access to and interaction with other animals in the cage, while accounting for precise, individualized measures of fluid intake through the combined use of balances and radiofrequency identification (RFID) implants. This cage system has been previously utilized to assess potential pharmacotherapies for AUD in rodents. Further details are provided in the Supplementary Material (Supplementary Fig. S1). Consistent with previous studies, a mixed-cage design (treated and control animals in the same cage) was used.
OXT acetate salt (Bachem, Torrence, CA, USA) was dissolved in normal saline to doses of 5.0 mg/kg and 10.0 mg/kg (25 µl, IN). LIT-001 was synthesized in the laboratory of Dr. Marcel Hibert. It was dissolved in 5% dimethyl sulfoxide in saline and administered at a dose of 10 mg/kg (IP). FPS ZM1 (1 mg/kg, IP; Tocris, Minneapolis, MN, USA) and d5 OXT (3 µg/25 µl, IN or 12 µg/0.1 ml, IP; Sigma-Aldrich, St. Louis, MO, USA) were dissolved in saline. The d5 OXT dose was based on previous assessments of OXT penetrance.
Alcohol and water intake were calculated for each animal as liquid consumed in grams (adjusted per density of 5% (v/v) ethanol and water) over body weight in kilograms. Alcohol and water drink size were determined by the volume of liquid consumed (ml) per consumption event. Consumptive visits were defined as channel entries during which a consumption event was recorded. […] Cumulative measures were analyzed at hourly intervals for 24 h post-treatment. Concentrations of d5 OXT (pg/mg of tissue) were obtained through LC-MS/MS analysis on a Shimadzu Nexera-LCMS-8060 instrument using a previously established method. Data analysis was performed in IBM SPSS Statistics 27 and visualization was performed in Prism 9.3.1. The distribution of many of these measures was not normal. Therefore, non-parametric statistics were applied, including Kruskal–Wallis test and post hoc analyses with Mann–Whitney U-test. While Results below only include p values, detailed statistical analyses are presented in Supplementary Material Table S1.
The Herdsman-2 (HM2) system was used in the experiments measuring alcohol consumption. The HM2 cage system consists of Techniplast 1500U Eurostandard type IV S (48 x 37.5 x 21cm) rodent housing cages equipped with two (11cm) channels (front and back) on one side and stairs specially designed to accommodate prairie voles. Each channel leads to a bottle (one water, one 5% ethanol in water, v/v) below which is a precision balance with a catch tray for spillage- which is automatically deducted from consumption calculations. Breakage of the photobeam at the entrance of the channel triggers the RFID reader to register the animal. A consumption event is initiated when the animal touches the drinking spout and a change of weight of at least 0.02 g is detected; the starting weight is saved and ending weight is registered only after the system receives a stable reading for 5 s. A consumption event is ended 30s after the last touch of the drinking spout, regardless of whether the animal remains in the channel. The system collects a number of measures, including: weight of liquid consumed, number of channel entries and consumptive vs. non-nutritive visits (whether liquid is consumed or not). […]

[2] = cited from earlier work
From the text: Determining the behavioral and molecular effects of OXT on alcohol consumption is important for translational application and optimization of treatment efficacy. […] While a statisti ...

prairie voles [3] = conditions: both sexes, previous prairie vole study; cited from earlier work
From the text: Importantly, RAGE immunoreactivity was detected in the choroid plexus, hypothalamus and hippocampus, confirming expression in possible locations of central penetration. […] Studies in mice noted that the IN route of administration can result in hi ...

With O=C(c1ccc(Cl)cc1)N(Cc1ccccc1)C1CCCCC1 [FPS ZM1] the “Effect of antagonist pre-treatment on brain d5 OXT levels after IP d5 OXT (in words)” value (RAGE; female or male prairie voles, FPS ZM1 1 mg/kg IP 30 min before IP d5 OXT, control vs antagonist pre-treated, ps > 0.21) was “No significant differences” and the “Effect of antagonist pre-treatment on brain d5 OXT levels after IN d5 OXT (in words)” value (RAGE; male prairie voles, FPS ZM1 1 mg/kg IP 30 min before IN d5 OXT, vs vehicle pre-treated controls, p = 0.02) was “significantly decreased”.

In the case of Cc1cc(C(=O)N2Cc3cnn(C)c3Nc3ccccc32)ccc1CNC(=O)N1CCN(Cc2cc(O)cc(O)c2)CC1 [WAY-267646], the “Affinity for the AVPR1a (in words)” value (AVPR1a) is given as “moderate affinity”.

In the case of CC[C@H](C)[C@@H]1NC(=O)[C@H](Cc2ccc(O)cc2)NC(=O)[C@@H](N)CSSC[C@@H](C(=O)N2CCC[C@H]2C(=O)N[C@@H](CC(C)C)C(=O)NCC(N)=O)NC(=O)[C@H](CC(N)=O)NC(=O)[C@H](CCC(N)=O)NC1=O [d5 OXT, oxytocin-(leucine-5,5,5-d3, glycine-2,2-d2) trifluoroacetate salt], the tissue level at time at 10 min (in vivo; 3 ug) is reported as 0.006 ng/g, the tissue level at time at 10 min (in vivo; ip, 12 ug) is reported as 0.05 ng/g and the “Presence of d5 OXT in brain (in words)” value (in vivo; ip) is reported as “detected”.

In the case of Oxytocin [OXT], the “Water intake or drink size 3 h post-treatment (in words)” value (prairie voles [1]; IN OXT 5 and 10 mg/kg, 3 h post-treatment) is reported as “No effect”, the “Alcohol or water consumptive visits or non-nutritive visits (in words)” value (prairie voles [1]; IN OXT 5 and 10 mg/kg, females and males, any time point, p > 0.94) is reported as “No significant differences” and the “Alcohol intake at 2 h post-treatment (in words)” value (prairie voles [1]; both doses of IN OXT (5 and 10 mg/kg), 2 h post-treatment, Kruskal-Wallis p = 0.02) is reported as “decreased alcohol intake”. For the same molecule, the “Effect on alcohol consumption in females (in words)” value (prairie voles [1]; female prairie voles, IN OXT 5 and 10 mg/kg) was “without affecting alcohol consumption”, the “Alcohol intake vs control counterparts (in words)” value (prairie voles [1]; male prairie voles, 5 mg/kg and 10 mg/kg IN OXT, 3 h post-treatment, Mann-Whitney p = 0.01 and p = 0.02) was “lower alcohol intake” and the “Alcohol drink size vs control counterparts (in words)” value (prairie voles [1]; male prairie voles, 5 mg/kg and 10 mg/kg IN OXT, 3 h post-treatment, p = 0.01 and p = 0.02) was “smaller drink sizes”. For the same molecule, the “Water intake at 2 h post-treatment (in words)” value (prairie voles [1]; male prairie voles, 10 mg/kg IN OXT, 2 h post-treatment, p = 0.04) was “increased water intake”, the “Bioavailability (in words)” value [2] was “low bioavailability” and the “Metabolic stability (in words)” value [2] was “metabolically unstable”. The “Oral availability (in words)” value [2] was “not orally available”, the Half-life ([2]; estimated) was “tens of minutes” and the “Alcohol and water intake after IP OXT (in words)” value (prairie voles [3]) was “decreased alcohol and water intake”.

For TC-OT-39, the “Affinity for the AVPR1a (in words)” value (AVPR1a) is given as “moderate affinity”.
